In brackets after ≈: the same amount, converted by molar mass.
Columns and labels:
Enterobacter cloacae = test: Antimicrobial activity Enterobacter cloacae ATCC 13047 by MTT assay; assay type: functional
Staphylococcus aureus = test: Antimicrobial activity Staphylococcus aureus ATCC 6538 by MTT assay; assay type: functional
Pseudomonas aeruginosa = test: Antimicrobial activity Pseudomonas aeruginosa ATCC 13525 by MTT assay
Enterococcus faecalis = test: Antimicrobial activity Streptococcus faecalis ATCC 9790 by MTT assay; assay type: functional
Bacillus subtilis = test: Antimicrobial activity Bacillus subtilis ATCC 6633 by MTT assay; assay type: functional
[1] = Toxicity in erythrocytes assessed as hemolysis; assay type: cell-based; conditions: erythrocyte
[2] = biological target: T1, 3-oxoacyl-[acyl-carrier-protein] synthase 3 (Escherichia coli, UniProt C3TDZ2); test: Inhibition of Escherichia coli FabH
T1 sequence (C3TDZ2 whole entry): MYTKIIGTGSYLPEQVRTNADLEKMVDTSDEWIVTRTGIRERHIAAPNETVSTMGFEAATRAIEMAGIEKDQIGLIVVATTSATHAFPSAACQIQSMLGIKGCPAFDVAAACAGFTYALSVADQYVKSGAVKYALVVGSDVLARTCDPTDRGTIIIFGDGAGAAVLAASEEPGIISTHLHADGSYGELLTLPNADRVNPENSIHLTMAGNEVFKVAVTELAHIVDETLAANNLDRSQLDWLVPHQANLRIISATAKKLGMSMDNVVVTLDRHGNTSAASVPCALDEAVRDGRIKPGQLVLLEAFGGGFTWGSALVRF

Escherichia coli = test: Antimicrobial activity Escherichia coli ATCC 35218 by MTT assay

SMILES	MIC (Enterobacter cloacae)	MIC (Staphylococcus aureus)	MIC (Pseudomonas aeruginosa)	MIC (Enterococcus faecalis)	MIC (Bacillus subtilis)	LC30 [1]	IC50 [2]	MIC (Escherichia coli)
COc1ccc(/C=N/Nc2nc(-c3ccc(Cl)cc3)cs2)cc1	> 50 µg/mL	25 µg/mL (≈ 72.7 µM)	25 µg/mL (≈ 72.7 µM)	> 50 µg/mL	12.5 µg/mL (≈ 36.4 µM)			
Oc1ccc(Br)cc1/C=N/Nc1nc(-c2ccc(Cl)cc2)cs1	6.25 µg/mL (≈ 15.3 µM)	6.25 µg/mL (≈ 15.3 µM)	6.25 µg/mL (≈ 15.3 µM)	12.5 µg/mL (≈ 30.6 µM)	25 µg/mL (≈ 61.2 µM)	> 10000 µg/mL	6.8 µM	
Oc1c(Cl)cc(Cl)cc1/C=N/Nc1nc(-c2ccc(Cl)c(Cl)c2)cs1	12.5 µg/mL (≈ 28.9 µM)	6.25 µg/mL (≈ 14.4 µM)	6.25 µg/mL (≈ 14.4 µM)	12.5 µg/mL (≈ 28.9 µM)	12.5 µg/mL (≈ 28.9 µM)	> 10000 µg/mL	16.5 µM	
Clc1ccc(-c2csc(N/N=C/c3ccc(Br)cc3)n2)cc1Cl	> 50 µg/mL	3.12 µg/mL (≈ 7.32 µM)	12.5 µg/mL (≈ 29.3 µM)	25 µg/mL (≈ 58.5 µM)	6.25 µg/mL (≈ 14.6 µM)			12.5 µg/mL (≈ 29.3 µM)
Oc1c(Cl)cc(Cl)cc1/C=N/Nc1nc(-c2ccccc2)cs1	12.5 µg/mL (≈ 34.3 µM)	> 50 µg/mL	> 50 µg/mL	25 µg/mL (≈ 68.6 µM)	25 µg/mL (≈ 68.6 µM)			
Clc1ccc(/C=N/Nc2nc(-c3ccccc3)cs2)cc1	25 µg/mL (≈ 79.7 µM)	25 µg/mL (≈ 79.7 µM)	25 µg/mL (≈ 79.7 µM)	25 µg/mL (≈ 79.7 µM)	25 µg/mL (≈ 79.7 µM)			
Oc1c(Cl)cc(Cl)cc1/C=N/Nc1nc(-c2ccc(Cl)cc2)cs1	> 50 µg/mL	> 50 µg/mL	6.25 µg/mL (≈ 15.7 µM)	12.5 µg/mL (≈ 31.4 µM)	> 50 µg/mL	> 10000 µg/mL	57.6 µM	6.25 µg/mL (≈ 15.7 µM)
Fc1ccc(/C=N/Nc2nc(-c3ccc(Cl)cc3)cs2)cc1	25 µg/mL (≈ 75.3 µM)	6.25 µg/mL (≈ 18.8 µM)	25 µg/mL (≈ 75.3 µM)	12.5 µg/mL (≈ 37.7 µM)	12.5 µg/mL (≈ 37.7 µM)			
Clc1ccc(/C=N/Nc2nc(-c3ccc(Cl)c(Cl)c3)cs2)cc1	25 µg/mL (≈ 65.3 µM)	1.56 µg/mL (≈ 4.08 µM)	12.5 µg/mL (≈ 32.7 µM)	25 µg/mL (≈ 65.3 µM)	12.5 µg/mL (≈ 32.7 µM)			12.5 µg/mL (≈ 32.7 µM)
Oc1c(Br)cc(Br)cc1/C=N/Nc1nc(-c2ccc(Cl)c(Cl)c2)cs1	3.12 µg/mL (≈ 5.99 µM)	6.25 µg/mL (≈ 12 µM)	3.12 µg/mL (≈ 5.99 µM)	6.25 µg/mL (≈ 12 µM)	3.12 µg/mL (≈ 5.99 µM)	> 10000 µg/mL	3.6 µM	
Oc1c(Br)cc(Br)cc1/C=N/Nc1nc(-c2ccccc2)cs1	25 µg/mL (≈ 55.2 µM)	> 50 µg/mL	25 µg/mL (≈ 55.2 µM)	25 µg/mL (≈ 55.2 µM)	12.5 µg/mL (≈ 27.6 µM)			25 µg/mL (≈ 55.2 µM)
Oc1ccc(Cl)cc1/C=N/Nc1nc(-c2ccccc2)cs1	> 50 µg/mL	> 50 µg/mL	12.5 µg/mL (≈ 37.9 µM)	25 µg/mL (≈ 75.8 µM)	> 50 µg/mL			12.5 µg/mL (≈ 37.9 µM)
Clc1ccc(/C=N/Nc2nc(-c3ccc(Cl)cc3)cs2)cc1	> 50 µg/mL	12.5 µg/mL (≈ 35.9 µM)	6.25 µg/mL (≈ 17.9 µM)	> 50 µg/mL	> 50 µg/mL			
Brc1ccc(/C=N/Nc2nc(-c3ccccc3)cs2)cc1	25 µg/mL (≈ 69.8 µM)	12.5 µg/mL (≈ 34.9 µM)	12.5 µg/mL (≈ 34.9 µM)	1.56 µg/mL (≈ 4.36 µM)	> 50 µg/mL			
COc1ccc(/C=N/Nc2nc(-c3ccccc3)cs2)cc1	> 50 µg/mL	> 50 µg/mL	> 50 µg/mL	> 50 µg/mL	25 µg/mL (≈ 80.8 µM)			

Source: ChEMBL document CHEMBL1154629, “Design, synthesis and biological evaluation of novel thiazole derivatives as potent FabH inhibitors” (Bioorg Med Chem Lett, 2009)
